Results: PubChem BioAssay (NCI)
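Following 48 hours of exposure in 96-well plates, responses at five concentrations were used to interpolate endpoints linearly. The concentration for 50% growth inhibition is given as GI50. Definition used: TGI = concentration required for complete inhibition of growth.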

Tests used:
Assay in all cases: NCI tumour cell line growth inhibition, 48 h
M14 melanoma = system: M14 melanoma
TK-10 renal = system: TK-10 renal
UACC-257 melanoma = system: UACC-257 melanoma
EKVX NSCLC = system: EKVX NSCLC
A549 NSCLC = system: A549 NSCLC
HL-60(TB) leukemia = system: HL-60(TB) leukemia
UO-31 renal = system: UO-31 renal
RXF 393 renal = system: RXF 393 renal
NCI/ADR-RES ovarian = system: NCI/ADR-RES ovarian
LOX IMVI melanoma = system: LOX IMVI melanoma
NCI-H522 lung = system: NCI-H522 lung
SK-MEL-5 melanoma = system: SK-MEL-5 melanoma
MDA-MB-231 breast = system: MDA-MB-231 breast
HS 578T breast = system: HS 578T breast
NCI-H23 lung = system: NCI-H23 lung
OVCAR-8 ovarian = system: OVCAR-8 ovarian
786-0 renal = system: 786-0 renal
A498 renal = system: A498 renal
NCI-H460 lung = system: NCI-H460 lung
HOP-62 NSCLC = system: HOP-62 NSCLC
OVCAR-3 ovarian = system: OVCAR-3 ovarian
BT-549 breast = system: BT-549 breast
SF-268 CNS = system: SF-268 CNS
CAKI-1 renal = system: CAKI-1 renal
UACC-62 melanoma = system: UACC-62 melanoma
HCT-116 colon = system: HCT-116 colon
COLO 205 colon = system: COLO 205 colon
IGROV1 ovarian = system: IGROV1 ovarian
PC-3 prostate = system: PC-3 prostate
U251 CNS = system: U251 CNS
HOP-92 NSCLC = system: HOP-92 NSCLC
MCF7 breast = system: MCF7 breast
K-562 leukemia = system: K-562 leukemia
HCT-15 colon = system: HCT-15 colon
SK-OV-3 ovarian = system: SK-OV-3 ovarian
SK-MEL-28 melanoma = system: SK-MEL-28 melanoma
SF-295 CNS = system: SF-295 CNS
SW-620 colon = system: SW-620 colon
KM12 colon = system: KM12 colon
DU-145 prostate = system: DU-145 prostate
SR leukemia = system: SR leukemia
ACHN renal = system: ACHN renal
OVCAR-5 ovarian = system: OVCAR-5 ovarian
MDA-MB-435 = system: MDA-MB-435
SNB-19 CNS = system: SNB-19 CNS
SN12C renal = system: SN12C renal
T-47D breast = system: T-47D breast
RPMI-8226 leukemia = system: RPMI-8226 leukemia
CCRF-CEM leukemia = system: CCRF-CEM leukemia
SK-MEL-2 melanoma = system: SK-MEL-2 melanoma
SF-539 CNS = system: SF-539 CNS
SNB-75 CNS = system: SNB-75 CNS
HT29 colon = system: HT29 colon
MOLT-4 leukemia = system: MOLT-4 leukemia
NCI-H226 lung = system: NCI-H226 lung
OVCAR-4 ovarian = system: OVCAR-4 ovarian
HCC-2998 colon = system: HCC-2998 colon

CC(=O)Nc1ccc(-c2csc(Nc3ccc(-c4csc(-c5ccccc5)n4)cc3)n2)cc1
GI50 (M14 melanoma): > 50 µM | TGI (M14 melanoma): > 50 µM | GI50 (TK-10 renal): 16.4 µM | TGI (TK-10 renal): > 50 µM | GI50 (UACC-257 melanoma): > 50 µM | TGI (UACC-257 melanoma): > 50 µM | GI50 (EKVX NSCLC): 12.9 µM | TGI (EKVX NSCLC): > 50 µM | GI50 (A549 NSCLC): 12.6 µM | TGI (A549 NSCLC): > 50 µM | GI50 (HL-60(TB) leukemia): 37.4 µM | TGI (HL-60(TB) leukemia): > 50 µM | GI50 (UO-31 renal): > 50 µM | TGI (UO-31 renal): > 50 µM | GI50 (RXF 393 renal): 13.3 µM | TGI (RXF 393 renal): > 50 µM | GI50 (NCI/ADR-RES ovarian): 11.1 µM | TGI (NCI/ADR-RES ovarian): 37.2 µM | GI50 (LOX IMVI melanoma): 31 µM | TGI (LOX IMVI melanoma): > 50 µM | GI50 (NCI-H522 lung): 16.3 µM | TGI (NCI-H522 lung): 41.5 µM | GI50 (SK-MEL-5 melanoma): 11.1 µM | TGI (SK-MEL-5 melanoma): 41.2 µM | GI50 (MDA-MB-231 breast): 6.94 µM | TGI (MDA-MB-231 breast): 27.8 µM | GI50 (HS 578T breast): 40.9 µM | TGI (HS 578T breast): > 50 µM | GI50 (NCI-H23 lung): 3.73 µM | TGI (NCI-H23 lung): 20.1 µM | GI50 (OVCAR-8 ovarian): 10.7 µM | TGI (OVCAR-8 ovarian): > 50 µM | GI50 (786-0 renal): 32.2 µM | TGI (786-0 renal): > 50 µM | GI50 (A498 renal): 12.5 µM | TGI (A498 renal): 25.6 µM | GI50 (NCI-H460 lung): 7.94 µM | TGI (NCI-H460 lung): > 50 µM | GI50 (HOP-62 NSCLC): > 50 µM | TGI (HOP-62 NSCLC): > 50 µM | GI50 (OVCAR-3 ovarian): > 50 µM | TGI (OVCAR-3 ovarian): > 50 µM | GI50 (BT-549 breast): 11.4 µM | TGI (BT-549 breast): > 50 µM | GI50 (SF-268 CNS): 19.9 µM | TGI (SF-268 CNS): > 50 µM | GI50 (CAKI-1 renal): 20.9 µM | TGI (CAKI-1 renal): > 50 µM | GI50 (UACC-62 melanoma): 5.98 µM | TGI (UACC-62 melanoma): > 50 µM | GI50 (HCT-116 colon): > 50 µM | TGI (HCT-116 colon): > 50 µM | GI50 (COLO 205 colon): > 50 µM | TGI (COLO 205 colon): > 50 µM | GI50 (IGROV1 ovarian): 10.9 µM | TGI (IGROV1 ovarian): 40.2 µM | GI50 (PC-3 prostate): 20.6 µM | TGI (PC-3 prostate): > 50 µM | GI50 (U251 CNS): 7.16 µM | TGI (U251 CNS): 21.3 µM | GI50 (HOP-92 NSCLC): > 50 µM | TGI (HOP-92 NSCLC): > 50 µM | GI50 (MCF7 breast): 16.3 µM | TGI (MCF7 breast): > 50 µM | GI50 (K-562 leukemia): 5.52 µM | TGI (K-562 leukemia): > 50 µM | GI50 (HCT-15 colon): 17.4 µM | TGI (HCT-15 colon): > 50 µM | GI50 (SK-OV-3 ovarian): 9.08 µM | TGI (SK-OV-3 ovarian): > 50 µM | GI50 (SK-MEL-28 melanoma): 7.14 µM | TGI (SK-MEL-28 melanoma): 42.9 µM | GI50 (SF-295 CNS): 36.3 µM | TGI (SF-295 CNS): > 50 µM | GI50 (SW-620 colon): > 50 µM | TGI (SW-620 colon): > 50 µM | GI50 (KM12 colon): 25.5 µM | TGI (KM12 colon): > 50 µM | GI50 (DU-145 prostate): 36.1 µM | TGI (DU-145 prostate): > 50 µM | GI50 (SR leukemia): 9.64 µM | TGI (SR leukemia): 45.2 µM | GI50 (ACHN renal): 7.53 µM | TGI (ACHN renal): 27.9 µM | GI50 (OVCAR-5 ovarian): 12.6 µM | TGI (OVCAR-5 ovarian): 42.6 µM | GI50 (MDA-MB-435): 19.1 µM | TGI (MDA-MB-435): > 50 µM | GI50 (SNB-19 CNS): 16.5 µM | TGI (SNB-19 CNS): > 50 µM | GI50 (SN12C renal): 5.64 µM | TGI (SN12C renal): 23.9 µM | GI50 (T-47D breast): 26.5 µM | TGI (T-47D breast): > 50 µM | GI50 (RPMI-8226 leukemia): > 50 µM | TGI (RPMI-8226 leukemia): > 50 µM | GI50 (CCRF-CEM leukemia): > 50 µM | TGI (CCRF-CEM leukemia): > 50 µM

COc1ccc(-c2[nH]c(=O)n(C3OC(CO)C(O)C(O)C3O)c(=O)c2C#N)cc1 (centres undefined)
TGI (SK-MEL-2 melanoma): > 100 µM | TGI (M14 melanoma): > 100 µM | TGI (TK-10 renal): > 100 µM | TGI (UACC-257 melanoma): > 100 µM | TGI (EKVX NSCLC): > 100 µM | TGI (A549 NSCLC): > 100 µM | TGI (HL-60(TB) leukemia): > 100 µM | TGI (UO-31 renal): > 100 µM | TGI (SF-539 CNS): > 100 µM | TGI (RXF 393 renal): > 100 µM | TGI (NCI/ADR-RES ovarian): > 100 µM | TGI (NCI-H522 lung): > 100 µM | TGI (SK-MEL-5 melanoma): > 100 µM | TGI (SNB-75 CNS): > 100 µM | TGI (MDA-MB-231 breast): > 100 µM | TGI (HS 578T breast): > 100 µM | TGI (NCI-H23 lung): > 100 µM | TGI (OVCAR-8 ovarian): > 100 µM | TGI (786-0 renal): > 100 µM | TGI (A498 renal): > 100 µM | TGI (NCI-H460 lung): > 100 µM | TGI (HOP-62 NSCLC): > 100 µM | TGI (OVCAR-3 ovarian): > 100 µM | TGI (HT29 colon): > 100 µM | TGI (BT-549 breast): > 100 µM | TGI (SF-268 CNS): > 100 µM | TGI (CAKI-1 renal): > 100 µM | TGI (UACC-62 melanoma): > 100 µM | TGI (HCT-116 colon): > 100 µM | TGI (COLO 205 colon): > 100 µM | TGI (IGROV1 ovarian): > 100 µM | TGI (PC-3 prostate): > 100 µM | TGI (MOLT-4 leukemia): > 100 µM | TGI (U251 CNS): > 100 µM | TGI (HOP-92 NSCLC): > 100 µM | TGI (MCF7 breast): > 100 µM | TGI (K-562 leukemia): > 100 µM | TGI (HCT-15 colon): > 100 µM | TGI (SK-OV-3 ovarian): > 100 µM | TGI (NCI-H226 lung): > 100 µM | TGI (SK-MEL-28 melanoma): > 100 µM | TGI (SF-295 CNS): > 100 µM | TGI (SW-620 colon): > 100 µM | TGI (KM12 colon): > 100 µM | TGI (DU-145 prostate): > 100 µM | TGI (SR leukemia): > 100 µM | TGI (ACHN renal): > 100 µM | TGI (OVCAR-5 ovarian): > 100 µM | TGI (MDA-MB-435): > 100 µM | TGI (OVCAR-4 ovarian): > 100 µM | TGI (HCC-2998 colon): > 100 µM | TGI (SNB-19 CNS): > 100 µM | TGI (SN12C renal): > 100 µM | TGI (T-47D breast): > 100 µM | TGI (RPMI-8226 leukemia): > 100 µM | TGI (CCRF-CEM leukemia): > 100 µM
